Assay results taken from patent publication US11040108B2, “Amino acid- and peptide-steroid conjugates and use thereof” (BRANDEIS UNIVERSITY, priority 2016, dated 2021).

Columns and labels:
Format in all cases: cell-based, human
[1] = system: Src, Akt, p-SAPK/JNK in A2780cis cell lines; test: Expression of Src, Akt and p-SAPK/JNK (CLSM, Western blot)
Method: Further exploration of the mode of action of 1a against A2780cis and HeLa cells was carried out via Western blot for the following ER stress markers: CHOP, Bip, PDI, IRE1α, Calnexin, Erol-Lα, PERK, and β-actin; or p-SAPK/JNK. Western blot was carried out via gel electrophoresis at […] for 1.5 hrs, and then transferring the protein on the gel to PVDF membranes for overnight at […] (4° C.). After that, the membrane was incubated with primary antibodies (obtained from Cell Signaling Technology) overnight at 4° C. The membrane was then incubated with secondary antibodies for 1 h at room temperature. This was followed by the reaction with ECL solutions for 10 minutes, and analysis of the results by autoradiography. Generation of ROS was detected in CLSM images via DHE emissions in exposed cells. CLSM imaging was carried out at the excitation of 543 nm and DHE emission was detected at the wavelength at 575 nm to 625 nm; or detection of anti-phospho-SRC and anti-phospho-Akt.
In addition, 1a causes down regulation of cell survival proteins, Akt (Alexander, “Inhibiting the Akt Pathway in Cancer Treatment,” Pharmacy & Therapeutics 36(4): 225-227 (2011), which is hereby incorporated by reference in its entirety) and Src (Irby et al., “Role of Src Expression and Activation in Human Cancer,” Oncogene 19(49):5636-5642 (2000), which is hereby incorporated by reference in its entirety). […]

F-actin in HeLa cells = test: Actin staining (CLSM), HeLa; details: 1a 25 μM, 12 hours
Method: Cells in exponential growth phase were seeded in confocal dish (3.5 cm) at 1×10^5 to 2×10^5 cells per dish. After putting the dish in incubator for 24 hours, culture medium was removed, and fresh medium containing precursor (12.5 μM 1a for A2780cis, 25 μM 1a for HeLa) was added. After 12 hours, the medium was removed and PBS was used to wash the cells for three times. After fixing by 4% paraformaldehyde for 15 minutes, 1 mL of 0.1% Triton X-100 in PBS buffer was added for 30 minutes. After washing the cells three times by PBS, 1 mL of 0.1% BSA in PBS was added for 30 minutes, and then the cells were washed by PBS for three times. 1 mL of PBS containing 5 unit of Alexa 633 was added to the cells for 1 hour. After removing the buffer and washing the cells three times by PBS, 1 mL of Hoechst (1 μg/mL) was added for 10 minutes. Then, the cells were washed three times with PBS buffer before imaging.
Similar to the case of A2780cis, the change of the viability of the HeLa cells co-incubated with 1a and several specific inhibitors was examined to understand the mechanism of cell death. […] To verify the assemblies of 1b interact with F-actin, actin tracker was used to visualize F-actin filament in HeLa cells.

A2780cis cell lines = test: Combination of 1a with other anti-cancer agents; details: mixture of 1a with TIC10, Apo2L/TRAIL or doxorubicin
Method: In addition, 1a causes down regulation of cell survival proteins, Akt (Alexander, “Inhibiting the Akt Pathway in Cancer Treatment,” Pharmacy & Therapeutics 36(4): 225-227 (2011), which is hereby incorporated by reference in its entirety) and Src (Irby et al., “Role of Src Expression and Activation in Human Cancer,” Oncogene 19(49):5636-5642 (2000), which is hereby incorporated by reference in its entirety). Treatment of A2780cis cell lines with 1a (12.5 μM) for 24 hours downregulates expression of Src (FIGS. 13A-B) and Akt (FIGS. 13C-D). […] When used in combination with other anti-cancer agents, TIC10, Apo2L/TRAIL, and doxorubicin, a mixture of 1a with the individual anti-cancer agents was prepared, and then the cells were incubated with the mixture.

[2] = system: cell death receptors (CD95, DR3, DR5, TNFR1, TNFR2) on A2780cis cells; test: Antibody staining of cell death receptors (CLSM); details: 1a 12.5 μM, 12 or 24 hours
Method: Procedure recommended by ABCAM for antibody staining was used. Cells were seeded (100,000-200,000 cell/3.5 cm confocal dish) and attachment was allowed (24 hours). Cells were incubated with 12.5 μM of precursor 1a for 12 hours or 24 hours. Then the cells were washed with PBS buffer three times and fixed by 4% formaldehyde for 15 minutes. Fixed cells were then washed with PBS buffer three times and incubated in 1.0% BSA/10% normal goat serum/0.3M glycine in 0.1% PBS-Tween for 1 hour to permeabilize the cells and block non-specific protein-protein interactions. Then they were washed with PBS buffer three times and incubated with the primary antibody (diluted 1/100, overnight at 4° C.). Then they were washed with PBS buffer three times and exposed to the secondary antibody (ab150077 Alexa Fluor® 488 goat anti-rabbit IgG (H+L), green) at 2 μg/ml (diluted 1/1000) for 1 hour. Hoechst 33342 was used to stain the cell nuclei (blue). The sample was washed with PBS buffer three times and mounted for imaging.
Antibody staining was used to examine the extrinsic cell death signaling molecules induced by the assemblies of 1b. […]

Structure (SMILES): CC(C)CCC[C@@H](C)C1CC[C@H]2[C@@H]3CC=C4CC(OC(=O)NC(Cc5ccc(OP(=O)(O)O)cc5)C(=O)O)CC[C@]4(C)[C@H]3CC[C@]12C (stereo partly drawn) [1a, Cholesterol-(phospho)D-Tyr]
- expression of Src and Akt ([1]; 1a 12.5 μM, 24 hours): downregulates
- p-SAPK/JNK expression levels ([1]; 24 hour treatment, Western blot): enhanced
- F-actin filaments (F-actin in HeLa cells): considerably decreased actin filaments
- effect of combination treatments (A2780cis cell lines): synergistic effects
- clustering of DR3 or TNF-R1 [2]: rather moderate
- clustering of DR5 [2]: significant clustering
